US8580811B2 (Ligand Pharmaceuticals Incorporated, priority 2005, dated 2013)

molecular target: T1, human AR (Homo sapiens, UniProt P10275); assay: IR Binding Assay: whole cell competitive binding of test compounds against 3H-DHT in COS-1 cells transfected with pRShAR; conditions: not given
T1 construct: expressed in transfected cells; host or cells: COS-1 cells
T1 sequence (P10275 1-920): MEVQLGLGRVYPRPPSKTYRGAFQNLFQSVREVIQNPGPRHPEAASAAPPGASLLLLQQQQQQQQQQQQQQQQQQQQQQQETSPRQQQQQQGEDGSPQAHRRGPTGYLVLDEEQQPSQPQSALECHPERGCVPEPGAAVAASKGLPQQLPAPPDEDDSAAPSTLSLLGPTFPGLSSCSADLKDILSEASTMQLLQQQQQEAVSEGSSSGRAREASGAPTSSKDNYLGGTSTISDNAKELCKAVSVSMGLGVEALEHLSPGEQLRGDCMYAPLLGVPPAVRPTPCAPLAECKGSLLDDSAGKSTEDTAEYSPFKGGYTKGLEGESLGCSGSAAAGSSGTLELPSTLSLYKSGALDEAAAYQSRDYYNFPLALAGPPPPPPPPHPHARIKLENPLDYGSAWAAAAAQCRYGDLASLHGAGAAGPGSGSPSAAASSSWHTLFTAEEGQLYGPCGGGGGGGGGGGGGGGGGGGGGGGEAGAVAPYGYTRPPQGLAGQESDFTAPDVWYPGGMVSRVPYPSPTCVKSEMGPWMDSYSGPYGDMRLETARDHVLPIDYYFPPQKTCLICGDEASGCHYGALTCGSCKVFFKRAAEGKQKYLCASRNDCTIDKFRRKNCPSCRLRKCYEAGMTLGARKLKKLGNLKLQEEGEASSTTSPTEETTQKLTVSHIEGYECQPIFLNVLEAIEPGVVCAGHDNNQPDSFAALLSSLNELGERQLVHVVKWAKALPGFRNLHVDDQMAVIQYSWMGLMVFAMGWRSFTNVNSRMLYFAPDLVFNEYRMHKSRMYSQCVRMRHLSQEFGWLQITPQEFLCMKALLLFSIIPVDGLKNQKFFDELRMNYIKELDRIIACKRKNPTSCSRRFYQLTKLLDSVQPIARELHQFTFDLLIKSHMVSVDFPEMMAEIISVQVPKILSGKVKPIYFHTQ
In short: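 COS-1 cells transfected with pRShAR plus β-Gal reporter, serum-starved 24 h, then exposed to 1 nM ³H-DHT with compounds at 10^−10 to 10^−6 M for 3 h at 37 °C. Bound ³H-DHT counted in lysates, normalized to β-Gal. IC50 from log-logit plot; Ki via Cheng-Prusoff using Kd from Scatchard saturation analysis.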

SMILES | Ki [nM]
Cc1c(-c2cccs2)n(CC(F)(F)F)c2ccc3[nH]c(=O)cc(Cl)c3c12 [Compound 207, 9-Chloro-1-methyl-2-thien-2-yl-3-(2,2,2-trifluoroethyl)-3,6-dihydro-pyrrolo[3,2-f]quinolin-7-one] | < 5
Cc1c(C)n(C)c2ccc3[nH]c(=O)cc(Cl)c3c12 [Compound 208, 9-Chloro-1,2,3-trimethyl-3,6-dihydro-pyrrolo[3,2-f]quinolin-7-one] | 5 to 10
CCc1c(-c2cccs2)n(CC(F)(F)F)c2ccc3[nH]c(=O)cc(Cl)c3c12 [Compound 209, 9-Chloro-1-ethyl-2-thien-2-yl-3-(2,2,2-trifluoroethyl)-3,6-dihydro-pyrrolo[3,2-f]quinolin-7-one] | < 5
CCCc1c(C)n(CC(F)(F)F)c2ccc3[nH]c(=O)cc(Cl)c3c12 [Compound 210, 9-Chloro-2-methyl-1-propyl-3-(2,2,2-trifluoroethyl)-3,6-dihydro-pyrrolo[3,2-f]quinolin-7-one] | < 5
Cc1cn(CC(F)(F)F)c2ccc3[nH]c(=O)cc(Cl)c3c12 [Compound 211, 9-Chloro-1-methyl-3-(2,2,2-trifluoroethyl)-3,6-dihydro-pyrrolo[3,2-f]quinolin-7-one] | 5 to 10
Cc1c(C)n(CC(F)(F)Cl)c2ccc3[nH]c(=O)cc(Cl)c3c12 [Compound 212, 9-Chloro-3-(2-chloro-2,2-difluoroethyl)-1,2-dimethyl-3,6-dihydro-pyrrolo[3,2-f]quinolin-7-one] | < 5
Cc1c(C)n(CCC(F)(F)F)c2ccc3[nH]c(=O)cc(Cl)c3c12 [Compound 213, 9-Chloro-1,2-dimethyl-3-(3,3,3-trifluoropropyl)-3,6-dihydro-pyrrolo[3,2-f]quinolin-7-one] | < 5
Cc1c(C)n(CC(F)(F)C(F)(F)C(F)(F)F)c2ccc3[nH]c(=O)cc(Cl)c3c12 [Compound 214, 9-Chloro-1,2-dimethyl-3-(2,2,3,3,4,4,4-heptafluorobutyl)-3,6-dihydro-pyrrolo[3,2-f]-quinolin-7-one] | > 10
Cc1c(C)n(CC(F)(F)C(F)(F)F)c2ccc3[nH]c(=O)cc(Cl)c3c12 [Compound 215, 9-Chloro-1,2-dimethyl-3-(2,2,3,3,3-pentafluoropropyl)-3,6-dihydro-pyrrolo[3,2-f]-quinolin-7-one] | < 5
CCc1c(C)c2c3c(Cl)cc(=O)[nH]c3ccc2n1CCC(F)(F)F [Compound 216, 9-Chloro-2-ethyl-1-methyl-3-(3,3,3-trifluoropropyl)-3,6-dihydro-pyrrolo[3,2-f]quinolin-7-one] | < 5
Cc1c(-c2ccccc2)n(CCC(F)(F)F)c2ccc3[nH]c(=O)cc(Cl)c3c12 [Compound 217, 9-Chloro-1-methyl-2-phenyl-3-(3,3,3-trifluoropropyl)-3,6-dihydropyrrolo[3,2-f]-quinolin-7-one] | < 5
Cc1c(-c2ccccc2)n(CC(F)(F)C(F)(F)F)c2ccc3[nH]c(=O)cc(Cl)c3c12 [Compound 218, 9-Chloro-1-methyl-3-(2,2,3,3,3-pentafluoropropyl)-2-phenyl-3,6-dihydro-pyrrolo[3,2-f]-quinolin-7-one] | < 5
Cc1c(C)n(CC(F)(F)C(F)(F)F)c2ccc3[nH]c(=O)cc(C(F)(F)F)c3c12 [Compound 219, 1,2-Dimethyl-3-(2,2,3,3,3-pentafluoropropyl)-9-trifluoromethyl-3,6-dihydro-pyrrolo[3,2-f]-quinolin-7-one] | < 5
Cc1c(C)n(CC(F)(F)Cl)c2ccc3[nH]c(=O)cc(C(F)(F)F)c3c12 [Compound 220, 1,2-Dimethyl-3-(2-chloro-2,2-difluoroethyl)-9-trifluoromethyl-3,6-dihydro-pyrrolo[3,2-f]-quinolin-7-one] | < 5
Cc1c(C)n(CCC(F)(F)F)c2ccc3[nH]c(=O)cc(C(F)(F)F)c3c12 [Compound 221, 1,2-Dimethyl-9-trifluoromethyl-3-(3,3,3-trifluoropropyl)-3,6-dihydro-pyrrolo[3,2-f]-quinolin-7-one] | < 5
CCc1c(C)c2c3c(Cl)cc(=O)[nH]c3ccc2n1CC(F)(F)Cl [Compound 222, 9-Chloro-3-(2-chloro-2,2-difluoroethyl)-2-ethyl-1-methyl-3,6-dihydro-pyrrolo[3,2-f]-quinolin-7-one] | < 5
CCc1c(C)c2c3c(Cl)cc(=O)[nH]c3ccc2n1CC(F)(F)C(F)(F)F [Compound 223, 9-Chloro-2-ethyl-1-methyl-3-(2,2,3,3,3-pentafluoropropyl)-3,6-dihydro-pyrrolo[3,2-f]-quinolin-7-one] | < 5
CCc1c(C)c2c3c(C(F)(F)F)cc(=O)[nH]c3ccc2n1CC(F)(F)Cl [Compound 224, 3-(2-Chloro-2,2-difluoroethyl)-2-ethyl-1-methyl-9-trifluoromethyl-3,6-dihydro-pyrrolo[3,2-f]-quinolin-7-one] | < 5
CCc1c(C)c2c3c(C(F)(F)F)cc(=O)[nH]c3ccc2n1CC(F)(F)C(F)(F)F [Compound 225, 2-Ethyl-1-methyl-3-(2,2,3,3,3-pentafluoropropyl)-9-trifluoromethyl-3,6-dihydro-pyrrolo[3,2-f]-quinolin-7-one] | < 5
CCc1c(C)c2c3c(C(F)(F)F)cc(=O)[nH]c3ccc2n1CCC(F)(F)F [Compound 226, 2-Ethyl-1-methyl-9-trifluoromethyl-3-(3,3,3-trifluoropropyl)-3,6-dihydro-pyrrolo[3,2-f]-quinolin-7-one] | < 5
Cc1c(C)n(CCCC(F)(F)F)c2ccc3[nH]c(=O)cc(C(F)(F)F)c3c12 [Compound 227, 1,2-Dimethyl-3-(4,4,4-trifluorobutyl)-9-trifluoromethyl-3,6-dihydro-pyrrolo[3,2-f]-quinolin-7-one] | < 5
CCc1c(C)c2c3c(C(F)(F)F)cc(=O)[nH]c3ccc2n1CCCC(F)(F)F [Compound 228, 2-Ethyl-1-methyl-3-(4,4,4-trifluorobutyl)-9-trifluoromethyl-3,6-dihydro-pyrrolo[3,2-f]-quinolin-7-one] | < 5
Cc1c(C(F)(F)F)n(CC(F)(F)F)c2ccc3[nH]c(=O)cc(Cl)c3c12 [Compound 229, 9-Chloro-1-methyl-3-(2,2,2-trifluoro-ethyl)-2-trifluoromethyl-3,6-dihydro-pyrrolo[3,2-f]-quinolin-7-one] | < 5
Cc1c(CO)n(CC(F)(F)F)c2ccc3[nH]c(=O)cc(Cl)c3c12 [Compound 230, 9-Chloro-2-hydroxymethyl-1-methyl-3-(2,2,2-trifluoro-ethyl)-3,6-dihydro-pyrrolo[3,2-f]-quinolin-7-one] | > 10
Cc1c(C(F)(F)F)n(CC(F)(F)F)c2ccc3[nH]c(=O)cc(C(F)(F)F)c3c12 [Compound 234, 1-Methyl-3-(2,2,2-trifluoro-ethyl)-2,9-bis-trifluoromethyl-3,6-dihydro-pyrrolo[3,2-f]-quinolin-7-one] | < 5
Cc1c(CO)n(CC(F)(F)F)c2ccc3[nH]c(=O)cc(C(F)(F)F)c3c12 [Compound 235, 2-Hydroxymethyl-1-methyl-3-(2,2,2-trifluoro-ethyl)-9-trifluoromethyl-3,6-dihydro-pyrrolo[3,2-f]-quinolin-7-one] | > 10
C=CCn1c(C)c(C)c2c3c(C(F)(F)F)cc(=O)[nH]c3ccc21 [Compound 236, 3-Allyl-1,2-dimethyl-9-trifluoromethyl-3,6-dihydro-pyrrolo[3,2-f]quinolin-7-one] | < 5
C=C(C)Cn1c(C)c(C)c2c3c(C(F)(F)F)cc(=O)[nH]c3ccc21 [Compound 237, 1,2-Dimethyl-3-(2-methyl-allyl)-9-trifluoromethyl-3,6-dihydro-pyrrolo[3,2-f]quinolin-7-one] | < 5
CC(C)=Cn1c(C)c(C)c2c3c(C(F)(F)F)cc(=O)[nH]c3ccc21 [Compound 238, 1,2-Dimethyl-3-(2-methylprop-1-enyl)-9-trifluoromethyl-3,6-dihydro-pyrrolo[3,2-f]-quinolin-7-one] | < 5
Cc1c(C)n(CCC(C)(C)O)c2ccc3[nH]c(=O)cc(C(F)(F)F)c3c12 [Compound 239, 3-(3-Hydroxy-3-methyl-butyl)-1,2-dimethyl-9-trifluoromethyl-3,6-dihydro-pyrrolo[3,2-f]-quinolin-7-one] | > 10

same assay, conditions: competition with 1 nM 3H-DHT, transfected COS-1 cells, 3 h at 37° C., Cheng-Prusoff from IC50; read-out: Ki

SMILES | Ki [nM]
Cc1c(-c2ccc(Cl)cc2)n(CC(F)(F)F)c2ccc3[nH]c(=O)cc(Cl)c3c12 [Compound 206, 9-Chloro-2(4-chlorophenyl)-1-methyl-3-(2,2,2-trifluoroethyl)-3,6-dihydro-pyrrolo[3,2-f]quinolin-7-one] | > 10
